Measurements as given in US8802597B2, “Herbicidal pyrimidines” (E I du Pont de Nemours and Company, priority 2003, dated 2014).

Assays:
Assay in all cases: Test G pre/postemergence
Type in all cases: in vivo
[1] = test system: annual bluegrass (Poa annua)
Outline: (§1)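 Seeds or nutlets were planted and treated preemergence with compound formulated in a non-phytotoxic solvent mixture containing surfactant; plants 2 to 18 cm tall (1- to 4-leaf stage) received postemergence sprays of the same formulation. After 12 to 21 days in a greenhouse, injury was rated visually against untreated controls on a 0–100 scale (100 = complete control).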

[2] = test system: barnyardgrass (Echinochloa crus-galli)
Outline: as §1

[3] = test system: broadleaf signalgrass (Brachiaria platyphylla)
Outline: as §1

[4] = test system: common purslane (Portulaca oleracea)
Outline: as §1

[5] = test system: common sowthistle (Sonchus oleraceous)
Outline: as §1

[6] = test system: dallisgrass (Paspalum dilatatum)
Outline: as §1

kochia (Kochia scoparia) = test system: kochia (Kochia scoparia)
Outline: as §1

[7] = test system: large crabgrass (Digitaria sanguinalis)
Outline: as §1

[8] = test system: pitted morningglory (Ipomoea lacunosa)
Outline: as §1

[9] = test system: purple nutsedge (Cyperus rotundus)
Outline: as §1

[10] = test system: spanishneedles (Bidens bipinnata)
Outline: as §1

[11] = Postemergence, 250 g ai/ha, scale 0 to 100
[12] = Postemergence, 500 g ai/ha, scale 0 to 100
[13] = Postemergence, 62 g ai/ha, scale 0 to 100
[14] = Postemergence, 125 g ai/ha, scale 0 to 100
[15] = Postemergence, 375 g ai/ha, scale 0 to 100
[16] = Preemergence, 62 g ai/ha, scale 0-100
[17] = Preemergence, 125 g ai/ha, scale 0-100
[18] = Preemergence, 250 g ai/ha, scale 0-100
[19] = Preemergence, 500 g ai/ha, scale 0 to 100
[20] = Preemergence, 375 g ai/ha, scale 0 to 100
[21] = Preemergence, 500 g ai/ha, scale 0-100

For `CCOC(=O)c1nc(C2CC2)nc(N)c1Br` [Compound 1, ethyl 6-amino-5-bromo-2-cyclopropyl-4-pyrimidinecarboxylate], the “Plant response rating, Bluegrass” value [1, 11] was 40, the “Plant response rating, Bluegrass” value [1, 12] was 50 and the “Plant response rating, Bluegrass” value [1, 13] was 20. The “Plant response rating, Bluegrass” value [1, 14] was 30, the “Plant response rating, Bluegrass” value [1, 15] was 50 and the “Plant response rating, Bluegrass” value [1, 16] was 10. The “Plant response rating, Bluegrass” value [1, 17] was 30, the “Plant response rating, Bluegrass” value [1, 18] was 85 and the “Plant response rating, Bluegrass” value [1, 19] was 85. For the same compound, the “Plant response rating, Barnyardgrass” value [2, 11] was 70, the “Plant response rating, Barnyardgrass” value [2, 12] was 75 and the “Plant response rating, Barnyardgrass” value [2, 13] was 60. For the same compound, the “Plant response rating, Barnyardgrass” value [2, 14] was 60, the “Plant response rating, Barnyardgrass” value [2, 15] was 70 and the “Plant response rating, Barnyardgrass” value [2, 16] was 0. For the same compound, the “Plant response rating, Barnyardgrass” value [2, 17] was 20, the “Plant response rating, Barnyardgrass” value [2, 18] was 50 and the “Plant response rating, Barnyardgrass” value [2, 19] was 70. For the same compound, the “Plant response rating, Barnyardgrass” value [2, 20] was 70, the “Plant response rating, Signalgrass” value [3, 11] was 75 and the “Plant response rating, Signalgrass” value [3, 12] was 85. The “Plant response rating, Signalgrass” value [3, 13] was 20, the “Plant response rating, Signalgrass” value [3, 14] was 60 and the “Plant response rating, Signalgrass” value [3, 15] was 75. For the same compound, the “Plant response rating, Signalgrass” value [3, 16] was 10, the “Plant response rating, Signalgrass” value [3, 17] was 70 and the “Plant response rating, Signalgrass” value [3, 18] was 75. For the same compound, the “Plant response rating, Signalgrass” value [3, 21] was 75, the “Plant response rating, Signalgrass” value [3, 19] was 95 and the “Plant response rating, Purslane” value [4, 11] was 100. The “Plant response rating, Purslane” value [4, 12] was 100, the “Plant response rating, Purslane” value [4, 13] was 80 and the “Plant response rating, Purslane” value [4, 14] was 100. The “Plant response rating, Purslane” value [4, 15] was 100, the “Plant response rating, Purslane” value [4, 16] was 10 and the “Plant response rating, Purslane” value [4, 17] was 60. The “Plant response rating, Purslane” value [4, 18] was 95, the “Plant response rating, Purslane” value [4, 21] was 100 and the “Plant response rating, Purslane” value [4, 19] was 100. The “Plant response rating, Sowthistle” value [5, 11] was 95, the “Plant response rating, Sowthistle” value [5, 12] was 100 and the “Plant response rating, Sowthistle” value [5, 13] was 95. The “Plant response rating, Sowthistle” value [5, 14] was 95, the “Plant response rating, Sowthistle” value [5, 15] was 95 and the “Plant response rating, Sowthistle” value [5, 16] was 95. The “Plant response rating, Sowthistle” value [5, 17] was 100, the “Plant response rating, Sowthistle” value [5, 18] was 100 and the “Plant response rating, Sowthistle” value [5, 21] was 100. The “Plant response rating, Sowthistle” value [5, 19] was 100, the “Plant response rating, Dallisgrass” value [6, 11] was 30 and the “Plant response rating, Dallisgrass” value [6, 12] was 30. For the same compound, the “Plant response rating, Dallisgrass” value [6, 13] was 10, the “Plant response rating, Dallisgrass” value [6, 14] was 20 and the “Plant response rating, Dallisgrass” value [6, 15] was 30. The “Plant response rating, Dallisgrass” value [6, 16] was 0, the “Plant response rating, Dallisgrass” value [6, 17] was 10 and the “Plant response rating, Dallisgrass” value [6, 18] was 50. For the same compound, the “Plant response rating, Dallisgrass” value [6, 19] was 95, the “Plant response rating, Dallisgrass” value [6, 20] was 95 and the “Plant response rating, Kochia” value (kochia (Kochia scoparia); [15]) was 95. For the same compound, the “Plant response rating, Kochia” value (kochia (Kochia scoparia); [16]) was 100, the “Plant response rating, Kochia” value (kochia (Kochia scoparia); [17]) was 100 and the “Plant response rating, Kochia” value (kochia (Kochia scoparia); [18]) was 100. For the same compound, the “Plant response rating, Kochia” value (kochia (Kochia scoparia); [21]) was 100, the “Plant response rating, Kochia” value (kochia (Kochia scoparia); [19]) was 100 and the “Plant response rating, Crabgrass, Large” value [7, 11] was 70. For the same compound, the “Plant response rating, Crabgrass, Large” value [7, 12] was 70, the “Plant response rating, Crabgrass, Large” value [7, 13] was 50 and the “Plant response rating, Crabgrass, Large” value [7, 14] was 60. For the same compound, the “Plant response rating, Crabgrass, Large” value [7, 15] was 70, the “Plant response rating, Crabgrass, Large” value [7, 16] was 20 and the “Plant response rating, Crabgrass, Large” value [7, 17] was 30. For the same compound, the “Plant response rating, Crabgrass, Large” value [7, 18] was 90, the “Plant response rating, Crabgrass, Large” value [7, 19] was 90 and the “Plant response rating, Crabgrass, Large” value [7, 20] was 90. The “Plant response rating, Morningglory” value [8, 11] was 100, the “Plant response rating, Morningglory” value [8, 12] was 100 and the “Plant response rating, Morningglory” value [8, 13] was 100. For the same compound, the “Plant response rating, Morningglory” value [8, 14] was 100, the “Plant response rating, Morningglory” value [8, 15] was 100 and the “Plant response rating, Morningglory” value [8, 16] was 95. The “Plant response rating, Morningglory” value [8, 17] was 100, the “Plant response rating, Morningglory” value [8, 18] was 100 and the “Plant response rating, Morningglory” value [8, 21] was 100. The “Plant response rating, Morningglory” value [8, 19] was 100, the “Plant response rating, Nutsedge, Purple” value [9, 11] was 20 and the “Plant response rating, Nutsedge, Purple” value [9, 12] was 30. For the same compound, the “Plant response rating, Nutsedge, Purple” value [9, 14] was 10, the “Plant response rating, Nutsedge, Purple” value [9, 15] was 30 and the “Plant response rating, Nutsedge, Purple” value [9, 16] was 10. The “Plant response rating, Nutsedge, Purple” value [9, 17] was 100, the “Plant response rating, Nutsedge, Purple” value [9, 18] was 100 and the “Plant response rating, Nutsedge, Purple” value [9, 21] was 100. For the same compound, the “Plant response rating, Nutsedge, Purple” value [9, 19] was 100, the “Plant response rating, Spanishneedles” value [10, 11] was 95 and the “Plant response rating, Spanishneedles” value [10, 12] was 95. For the same compound, the “Plant response rating, Spanishneedles” value [10, 13] was 80, the “Plant response rating, Spanishneedles” value [10, 14] was 95 and the “Plant response rating, Spanishneedles” value [10, 15] was 95. For the same compound, the “Plant response rating, Spanishneedles” value [10, 16] was 100, the “Plant response rating, Spanishneedles” value [10, 17] was 100 and the “Plant response rating, Spanishneedles” value [10, 18] was 100. The “Plant response rating, Spanishneedles” value [10, 21] was 100 and the “Plant response rating, Spanishneedles” value [10, 19] was 100.

In the case of `CCOC(=O)c1nc(C2CC2)nc(N)c1Cl` [Compound 4, ethyl 6-amino-5-chloro-2-cyclopropyl-4-pyrimidinecarboxylate], the “Plant response rating, Bluegrass” value [1, 16] is reported as 10, the “Plant response rating, Bluegrass” value [1, 17] is reported as 60 and the “Plant response rating, Bluegrass” value [1, 18] is reported as 80. The “Plant response rating, Bluegrass” value [1, 19] was 100, the “Plant response rating, Barnyardgrass” value [2, 16] was 50 and the “Plant response rating, Barnyardgrass” value [2, 17] was 70. For the same compound, the “Plant response rating, Barnyardgrass” value [2, 18] was 80, the “Plant response rating, Barnyardgrass” value [2, 19] was 100 and the “Plant response rating, Signalgrass” value [3, 16] was 50. The “Plant response rating, Signalgrass” value [3, 17] was 70, the “Plant response rating, Signalgrass” value [3, 18] was 95 and the “Plant response rating, Signalgrass” value [3, 19] was 95. The “Plant response rating, Purslane” value [4, 16] was 60, the “Plant response rating, Purslane” value [4, 17] was 100 and the “Plant response rating, Purslane” value [4, 18] was 100. For the same compound, the “Plant response rating, Purslane” value [4, 19] was 100, the “Plant response rating, Sowthistle” value [5, 16] was 100 and the “Plant response rating, Sowthistle” value [5, 17] was 100. For the same compound, the “Plant response rating, Sowthistle” value [5, 18] was 100, the “Plant response rating, Sowthistle” value [5, 19] was 100 and the “Plant response rating, Dallisgrass” value [6, 16] was 0. The “Plant response rating, Dallisgrass” value [6, 17] was 50, the “Plant response rating, Dallisgrass” value [6, 18] was 95 and the “Plant response rating, Dallisgrass” value [6, 19] was 100. For the same compound, the “Plant response rating, Crabgrass, Large” value [7, 16] was 60, the “Plant response rating, Crabgrass, Large” value [7, 17] was 75 and the “Plant response rating, Crabgrass, Large” value [7, 18] was 100. For the same compound, the “Plant response rating, Crabgrass, Large” value [7, 19] was 100, the “Plant response rating, Morningglory” value [8, 16] was 100 and the “Plant response rating, Morningglory” value [8, 17] was 100. The “Plant response rating, Morningglory” value [8, 18] was 100, the “Plant response rating, Morningglory” value [8, 19] was 100 and the “Plant response rating, Nutsedge, Purple” value [9, 16] was 40. For the same compound, the “Plant response rating, Nutsedge, Purple” value [9, 17] was 100, the “Plant response rating, Nutsedge, Purple” value [9, 18] was 100 and the “Plant response rating, Nutsedge, Purple” value [9, 19] was 100. For the same compound, the “Plant response rating, Spanishneedles” value [10, 16] was 100, the “Plant response rating, Spanishneedles” value [10, 17] was 100 and the “Plant response rating, Spanishneedles” value [10, 18] was 100. For the same compound, the “Plant response rating, Spanishneedles” value [10, 19] was 100.
